Assay results as given in US20240327407A1, “NOVEL INHIBITORS OF AUTOTAXIN” (CADILA HEAL THCARE LIMITED, priority 2021, published 2024).

target: ATX (Mus musculus (Mouse), UniProt Q9R1E6); experiment: Mice serum ATX inhibitory activity (IC50 determination); assay type: biochemical
Protocol: ATX Inhibitory activity was determined in a biochemical or whole blood assay as described previously (Bretschneider, T. et al., SLAS Discov 2017, 22, 425). The biochemical reaction consisted of 50 mM Tris (pH 8.0), 3 mM KCl, 1 mM CaCl2, 1 mM Mg Cl2, […] NaCl and 0.1% bovine serum albumin, which was supplemented with 5 nM recombinant rat ATX, 5 μM 18:1 LPC and the test compound (0.1-10 μM). The reaction was stopped at 2 h by the addition of butanol, prior to the RapidFire-MS-based analysis.
The whole blood assay consisted of 45 μL μL heparinized mice/rat whole blood and the test compound (0.12-100 μM). The reaction was stopped after 1 h at 37° C. by addition of 100 μL 40 mM disodium hydrogen phosphate buffer containing 30 mM citric acid (pH 4) and 1 μM 17:0 LPA (internal standard). Afterwards the samples were treated a described above and analysed by LC-MS/MS. The data was analyzed using graph pad prism (v 7.03) to arrive at the half-maximal inhibitory concentrations (IC50) of the test compounds.

Q: How did the IC50 turn out when CC(C)[C@@H](NC(=O)c1cc(C(F)(F)F)ccc1F)C(=O)N1CCC2(CC1)C(=O)NCC2c1ccccc1 (stereo partly drawn) [Compound 45, 2-fluoro-N-((2R)-3-methyl-1-oxo-1-(1-oxo-4-phenyl-2,8-diazaspiro[4.5]decan-8-yl)butan-2-yl)-5-(trifluoromethyl)benzamide] was run?
A: 19.2 nM

Q: CC(C)[C@@H](NC(=O)c1cc(C(F)(F)F)ccc1F)C(=O)N1CCC2(CC1)C(=O)N(CC1CC1)CC2c1cccnc1 (stereo partly drawn) [Compound 113, N-((2R)-1-(2-(cyclopropylmethyl)-1-oxo-4-(pyridin-3-yl)-2,8-diazaspiro[4.5]decan-8-yl)-3-methyl-1-oxobutan-2-yl)-2-fluoro-5-(trifluoromethyl)benzamide] was tested. Which IC50 did it give?
A: 102 nM

Q: With Cc1ccnc(C(=O)N[C@@H](C(=O)N2CCC3(CC2)CC(=O)N(C)CC3c2ccccc2)C(C)C)c1 (some centres unmarked) [Compound 194] as the compound, how does the IC50 read?
A: 15.9 nM

Q: Which IC50 does the source give for CC(C)[C@@H](NC(=O)c1cc(C(F)(F)F)ccc1F)C(=O)N1CCC2(CC1)CN(C)CC2c1ccc(F)cc1 (stereo partly drawn) [Compound 119, 2-fluoro-N-((2R)-1-(4-(4-fluorophenyl)-2-methyl-2,8-diazaspiro[4.5]decan-8-yl)-3-methyl-1-oxobutan-2-yl)-5-(trifluoromethyl)benzamide] here?
A: 7.1 nM

Q: How did the IC50 turn out when CC(C)[C@@H](NC(=O)c1cc(C(F)(F)F)ccc1F)C(=O)N1CCC2(CC1)C(=O)N(C(C)C)CC2c1ccc(F)cc1 (stereo partly drawn) [Compound 111, 2-fluoro-N-((2R)-1-(4-(4-fluorophenyl)-2-isopropyl-1-oxo-2,8-diazaspiro[4.5]decan-8-yl)-3-methyl-1-oxobutan-2-yl)-5-(trifluoromethyl)benzamide] was run?
A: 34.2 nM

Q: Which IC50 does the source give for CC(C)[C@@H](NC(=O)c1cc(C(F)(F)F)ccc1F)C(=O)N1CCC2(CCN(C)CC2c2ccc(F)cc2)CC1 (stereo partly drawn) [Compound 221, 2-fluoro-N-((2R)-1-(7-(4-fluorophenyl)-9-methyl-3,9-diazaspiro[5.5]-undecan-3-yl)-3-methyl-1-oxobutan-2-yl)-5-(trifluoromethyl)benzamide] here?
A: 5.1 nM

Q: CCN1CC(c2ccc(F)cc2)C2(CCN(C(=O)[C@H](NC(=O)c3cc(C(F)(F)F)ccc3F)C(C)C)CC2)C1=O (stereo partly drawn) [Compound 104, N-((2R)-1-(2-ethyl-4-(4-fluorophenyl)-1-oxo-2,8-diazaspiro[4.5]decan-8-yl)-3-methyl-1-oxobutan-2-yl)-2-fluoro-5-(trifluoromethyl)benzamide] was tested. Which IC50 did it give?
A: 11.7 nM

Q: Which IC50 does the source give for CC(C)[C@@H](NC(=O)c1cc(C(F)(F)F)ccc1F)C(=O)N1CCC2(CC1)CN(CC1CC1)CC2c1ccc(F)cc1 (stereo partly drawn) [Compound 121, N-((2R)-1-(2-(cyclopropylmethyl)-4-(4-fluorophenyl)-2,8-diazaspiro[4.5]decan-8-yl)-3-methyl-1-oxobutan-2-yl)-2-fluoro-5-(trifluoromethyl)benzamide] here?
A: 84.4 nM

Q: CC(C)[C@@H](NC(=O)c1cc(C(F)(F)F)ccc1F)C(=O)N1CCC2(CC1)CC(=O)NCC2c1ccc(F)cc1 (stereo partly drawn) [Compound 164, 2-fluoro-N-((2R)-1-(7-(4-fluorophenyl)-10-oxo-3,9-diazaspiro[5.5]undecan-3-yl)-3-methyl-1-oxobutan-2-yl)-5-(trifluoromethyl)benzamide] was tested. Which IC50 did it give?
A: 6.5 nM

Q: COc1ccc(C2CN(C)CC23CCN(C(=O)[C@H](NC(=O)c2cc(C)ccc2F)C(C)C)CC3)cc1 (stereo partly drawn) [Compound 123, 2-fluoro-N-((2R)-1-(4-(4-methoxyphenyl)-2-methyl-2,8-diazaspiro[4.5]decan-8-yl)-3-methyl-1-oxobutan-2-yl)-5-methylbenzamide] was tested. Which IC50 did it give?
A: 9.3 nM

Q: How did the IC50 turn out when CC(C)[C@@H](NC(=O)c1cc(C(F)(F)F)ccc1F)C(=O)N1CCC2(CC1)CN(C)CC2c1ccc2[nH]ncc2c1 (stereo partly drawn) [Compound 65, N-((2R)-1-(4-(1H-indazol-5-yl)-2-methyl-2,8-diazaspiro[4.5]decan-8-yl)-3-methyl-1-oxobutan-2-yl)-2-fluoro-5-(trifluoromethyl)benzamide] was run?
A: 6.9 nM
